Assay results published in EP4132503B1, “PROBENECID FOR USE IN THE TREATMENT OF SARS-CO-V2 INFECTIONS” (priority 2020, dated 2021).
Read-outs that look alike come from different tables or passages of the source.

What was measured:
[1] = tested on: SARS-CoV-2 (Isolate USA-WA1/2020); type: cell-based; conditions: 24 h pre-treatment, compared to DMSO treated infected control
SARS-CoV-2 [2] = type: cell-based; conditions: post-treatment, added after 1 hour infection, compared to DMSO treated infected control, Figure 3
SARS-CoV-2 [3] = type: cell-based
SARS-CoV-2 [4] = conditions: for patients converted to negative SARS-CoV-2 test (of the 10 patients enrolled): 500 mg twice daily
[5] = cited from earlier work
[6] = tested on: SARS-CoV-2 (Isolate USA-WA1/2020); test: Prophylactic and therapeutic treatment of SARS-CoV-2 infected hamsters; lung viral titer (TCID50 and plaque assay)
[7] = prophylactic and therapeutic conditions, both cell types (NHBE and Vero)

Structure (SMILES): CCCN(CCC)S(=O)(=O)c1ccc(C(=O)O)cc1 [probenecid, 4-[(dipropylamino)sulfony1] benzoic acid]
- reduction in plaque formation ([1]; 0.0001µM, another experiment, 6 well plate, Figure 2): 50%
- reduction in plaque formation ([1]; 0.1µM, Vero E6, MOI 0.01, 4 days, Figure 1): 72%
- reduction in plaque formation ([1]; 5µM, Vero E6, MOI 0.01, 4 days, Figure 1): ~ 89%
- reduction in plaque formation ([1]; 5µM, another experiment, 6 well plate, Figure 2): ~ 93%
- reduction in plaque formation (SARS-CoV-2 [2]; 0.0001µM): 40%
- reduction in plaque formation (SARS-CoV-2 [2]; 5µM): ~ 90%
- IC50s compared with remdesivir (SARS-CoV-2 [3]; [7]): lower
- IC90s compared with remdesivir (SARS-CoV-2 [3]; [7]): lower
- virus plaque formation (SARS-CoV-2 [3]; treated prophylactically or therapeutically, compared to controls): dose-dependent decrease
- patients converted to negative SARS-CoV-2 test (of the 10 patients enrolled) (SARS-CoV-2 [4]; Day 4 of treatment): 2
- patients converted to negative SARS-CoV-2 test (of the 10 patients enrolled) (SARS-CoV-2 [4]; Day 9 of treatment): four
- patients converted to negative SARS-CoV-2 test (of the 10 patients enrolled) (SARS-CoV-2 [4]; Day 14 of treatment): nine
- viral shedding of SARS-CoV-2 (SARS-CoV-2 [4]; compared to literature pooled median of 17.2 days, all but one patient (Patient 003)): < 17.2 days
- patient symptoms (SARS-CoV-2 [4]; no scored grading system used, shortness of breath and loss of taste or smell persisted): showed improvement
- coagulation and inflammatory markers (SARS-CoV-2 [4]; with the exception of one patient (Patient 001)): mostly maintained within normal ranges
- lipid solubility [5]: highly lipid soluble
- effectiveness of the two doses compared ([6]; 2 mg and 200 mg treatment, single dose): similarly effective
- lung virus titers ([6]; day 3 post-infection, all probenecid-treated hamsters (2 or 200 mg/kg, prophylactic or therapeutic, single dose), PBS-treated 1E9+): 1E5
- lung virus ([6]; day 7 post infection): no detectable lung virus
- prophylactic compared with therapeutic treatment ([6]; hamster, in vivo): worked similarly
- decrease of lung virus titers ([6]; hamsters, compared to PBS-treated): several logs
